# Patent publication US20040254229A1, “Use of glucose uptake enhancer for reducing apoptosis” (SmithKline Beecham p.l.c. and SmithKline Beecham …, priority 1998, published 2004)
# How the values were obtained:
# [1] = tested on: isolated working hearts from male Wistar rats; assay: Isolated working hearts from normal male Wistar rats: ventricular function, zero-flow ischaemia and re-perfusion; parameters: species or system rat
# Method: Test Systems: Male Wistar rats (Charles River; St Aubin lès Elbeuf, France), with a body weight ranging from 260 to 280 g were housed on a 12h/12h light-dark cycle with access to water and standard rat chow ad libitum. An acclimatisation period of at least one week was allowed prior to experiment.
# (§1) Perfusion of isolated hearts: Rats were anaesthetized using thiopental sodium (50 mg/kg body weight intraperitoneally). Hearts from normoglycaemic and one-month STZ-induced diabetic rats, were quickly removed and immersed in ice-cold buffer to produce an immediate cessation of contractility. The aorta was dissected free and then mounted onto a cannula attached to a perfusion apparatus. Retrograde perfusion of the heart was started for 10 min by the Langendorff method and then switched to perfusion using the working-heart technique. […] The perfusate was not recirculated. Preload was held at a pressure of 15 cm H2O and afterload, as well as coronary perfusion pressure, were kept constant at 80 cm H2O.
# (§2) Aortic and coronary flows ([…]) were measured by timed collection. Cardiac output ([…]) was derived from the sum of the aortic and coronary flows. Stroke volume (ml/beat) was derived by dividing cardiac output by heart rate.
# (§3) Induction of global ischaemia and re-perfusion: Total ischaemia was initiated by clamping the left atrium and the aortic perfusion tubes and reducing coronary flow to zero for 30 minutes. The hearts were then re-perfused at 37° C. in working heart mode and recovery of ventricular function was followed for 30 minutes.
# (§4) Data Handling & Analysis: The data are presented as the mean±SEM. Statistical significance of differences was determined using Student's t-test. Differences with p<0.05 were considered to be statistically significant.
# [2] = tested on: isolated working hearts from STZ-diabetic rats; assay: Isolated working hearts from STZ-diabetic male Wistar rats: ventricular function, zero-flow ischaemia and re-perfusion; parameters: species or system rat
# Method: A solution of streptozotocin (STZ commercially available) was prepared in citrate buffer (40 mg/ml).
# Induction of experimental diabetes: Male Wistar rats weighing between 300 and 320 g were fasted overnight and made diabetic by a single intravenous injection of STZ, 40 mg/kg body weight. The development of diabetes and its persistence were monitored by serial quantitative measurements of glucose in the urine with reagent strips. On the day of the experiment, the severity of diabetes was assessed by measuring glucose concentrations from blood samples collected at the time of heart excision. Only rats with plasma glucose levels exceeding 20 mM were considered diabetic and included in these experiments.
# as §1, §2, §3, §4
# [3] = baseline ventricular function, normal male Wistar rats, 1 μM in the perfusate pre-ischaemia, mean±SEM
# [4] = baseline ventricular function, STZ-diabetic male Wistar rats, 1 μM in the perfusate pre-ischaemia, n = 6, mean±SEM
compound,measurement,setting,value
"CN(CCOc1ccc(CC2SC(=O)NC2=O)cc1)c1ccccn1 (stereo not drawn) [Compound (I), 5-[4-[2-(N-methyl-N-(2-pyridyl)amino)ethoxy]benzyl]thiazolidine-2,4-dione]",Aortic Flow,[1]; [3],34.0 ± 0.7 mL/min
same,Cardiac Output,[1]; [3],51 ± 1 mL/min
same,Coronary Flow,[1]; [3],16.6 ± 0.6 mL/min
same,Heart Rate,[1]; [3],317 ± 15 beats/min
same,Peak Systolic Pressure,[1]; [3],73 ± 1 mmHg
same,protective properties in hearts subjected to zero-flow ischaemia in vitro,[1]; normal rat hearts,protective properties of rapid onset
same,Aortic Flow,[2]; [4],42.3 ± 1.5 mL/min
same,Cardiac Output,[2]; [4],54.4 ± 1.7 mL/min
same,Coronary Flow,[2]; [4],12.1 ± 0.4 mL/min
same,Heart Rate,[2]; [4],225 ± 14 beats/min
same,Peak Systolic Pressure,[2]; [4],76 ± 2 mmHg
same,protective properties in hearts subjected to zero-flow ischaemia in vitro,[2]; diabetic rat hearts,protective properties of rapid onset
